# According to PMC10555500, “Evaluation of the Antiproliferative Properties of CpRu Complexes Containing N-Methylated Triazaphosphaadamantane Derivatives” (Bioinorganic Chemistry and Applications, 2023):
# Tests used:
# [1] = system: MDA-MB-231 breast cancer cells; test: MTT cytotoxicity assay, MDA-MB-231 cells; assay type: cell-based, human; settings: 24 h incubation, MTT, average of at least three experiments (±SD)
# Experimental: (§1) The MDA-MB-231 and MCF-7 human breast cancer cells were purchased from ATCC. The MDA-MB-231 and MCF-7 cells were grown in Dulbecco's modified Eagles' medium (DMEM high glucose) (Capricorn Scientific) at 37°C in 5% CO2 supplemented with 10% fetal bovine serum (Capricorn Scientific). HDF cells were purchased from Merck and were grown in the fibroblast growth medium. All cells were adherent in monolayers and, upon confluence, were washed with phosphate buffer saline (PBS) and harvested by digestion with trypsin-EDTA 0.05% (v/v). The cells were suspended and transferred into new, sterile, culture flasks for maintenance or seeded in sterile test microplates for different assays. All cells were manipulated under aseptic conditions in a flow chamber.
# The cells were adherent in monolayers and, upon confluence, were harvested by digestion with trypsin. The cytotoxicity of the complexes against the tumour cells was assessed using the colorimetric assay MTT […], which evaluates the metabolic activity of viable cells. This assay measures the conversion of yellow tetrazolium into purple formazan by an active mitochondrial dehydrogenase in living cells. For this purpose, the cells (10–20 × 10^3 in 200 μL of the medium) were seeded into 96-well plates and incubated in a 5% CO2 incubator at 37°C. The cells were settled for 24 h followed by the addition of a dilution series of the complexes in a medium (200 μL). The complexes were first solubilized in 100% DMSO, given a 10 mM stock solution, and then in a medium within the concentration range of 0.1–100 µM. […] After 24 h of incubation, the treatment solutions were removed by aspiration, and MTT solution (200 μL, 0.5 mg·mL^−1 in PBS) was added to each well. After 3 h at 37°C/5% CO2, the solution was removed, and the purple formazan crystals formed inside the cells were dissolved in DMSO (200 μL) by thorough shaking. The cellular viability was evaluated by measuring the absorbance at 570 nm by using a microplate spectrophotometer. The IC50 values were obtained by dose-response curves using the GraphPad Prism software (vs. 5).
# The MDA-MB-231 and MCF-7 human breast cancer cells were purchased from ATCC. MDA-MB-231 and MCF-7 cells were grown in Dulbecco’s modified Eagles’s medium (DMEM high glucose) (Capricorn Scientific) at 37 °C in 5% CO2 supplemented with 10% fetal bovine serum (Capricorn Scientific). All cells were adherent in monolayers and, upon confluence, were washed with phosphate buffer saline (PBS) and harvested by digestion with Trypsin-EDTA 0.05% (v/v). The cells were suspended and transferred into new, sterile, culture flasks, for maintenance or seeded in sterile test microplates for different assays. All cells were manipulated under aseptic conditions in a flow chamber.
# The cells were adherent in monolayers and, upon confluency, were harvested by digestion with trypsin. The cytotoxicity of the complexes against the tumour cells was assessed using the colorimetric assay MTT […], which evaluate the metabolic activity of viable cells. This assay measures the conversion of the yellow tetrazolium into purple formazan by an active mitochondrial dehydrogenase in living cells. For this purpose, cells (10-20 × 10^3 in 200 μL of medium) were seeded into 96-well plates and incubated in a 5% CO2 incubator at 37 °C. The cells were settled for 24 h followed by the addition of a dilution series of the complexes in medium (200 μL). The complexes were first solubilized in 100% DMSO, given a 10 mM stock solution, and then in medium within the concentration range of 0.1–100 µM. […] After 24 h of incubation, the treatment solutions were removed by aspiration, and MTT solution (200 μL, 0.5 mg·mL^-1 in PBS) was added to each well. After 3 h at 37 °C/5% CO2, the solution was removed, and the purple formazan crystals formed inside the cells were dissolved in DMSO (200 μL) by thorough shaking. […]
# [2] = system: MCF-7 breast cancer cells; test: MTT cytotoxicity assay, MCF-7 cells; assay type: cell-based, human; settings: 24 h incubation, average of at least three experiments (±SD)
# Experimental: as §1
# The cells were adherent in monolayers and, upon confluence, were harvested by digestion with trypsin. The cytotoxicity of the complexes against the tumour cells was assessed using the colorimetric assay MTT […], which evaluates the metabolic activity of viable cells. This assay measures the conversion of yellow tetrazolium into purple formazan by an active mitochondrial dehydrogenase in living cells. For this purpose, the cells (10–20 × 10^3 in 200 μL of the medium) were seeded into 96-well plates and incubated in a 5% CO2 incubator at 37°C. The cells were settled for 24 h followed by the addition of a dilution series of the complexes in a medium (200 μL). The complexes were first solubilized in 100% DMSO, given a 10 mM stock solution, and then in a medium within the concentration range of 0.1–100 µM. […] The cellular viability was evaluated by measuring the absorbance at 570 nm by using a microplate spectrophotometer. […]
# The cells were adherent in monolayers and, upon confluency, were harvested by digestion with trypsin. The cytotoxicity of the complexes against the tumour cells was assessed using the colorimetric assay MTT […], which evaluate the metabolic activity of viable cells. […]
# [3] = Stability in DMSO-d6 and DMSO-d6/D2O monitored by 31P{1H} NMR; assay type: physicochemical
# Text: The assessment of the biological properties of the complexes requires their dissolution in a cell culture medium which is mainly constituted by water. When the complex is not hydrosoluble enough, the used protocol contemplates preliminary dissolution in DMSO before the addition to the culture medium. Thus, it is important to determine the stability and behaviour of the complexes in both DMSO and water/DMSO mixtures to check whether different species have been formed when dissolved. Dissolutions in DMSO-d6 and DMSO-d6/D2O of the new complexes 8 and 11 were monitored by ^31P{^1H} NMR over time at room temperature and 37°C. The stability studies of the rest of the complexes (1‐7, 9, 10) were published previously. All experiments were performed by a similar procedure: the complex (0.01 g) was introduced into a 5 mm NMR tube and dissolved in 0.5 mL of degassed solvent (DMSO-d6 and a 1 : 1 mixture of DMSO-d6/D2O). The solution was left at room temperature and monitored by ^31P{^1H} NMR first every 15 minutes, and later in longer periods. Stability was also monitored at incubation cell-based assay temperature (37°C).
# All compounds were studied for their stability in 100% DMSO-d6 and DMSO-d6/D2O mixture by using NMR spectroscopy in common aerobic conditions. All experiments were performed by a similar procedure: the complex (0.01 g) was introduced into a 5 mm NMR tube and dissolved in 0.5 mL of degassed solvent (DMSO-d6 and a 1:1 mixture of DMSO-d6/D2O). The solution was left at room temperature and monitored by ^31P{^1H} NMR first every 15 minutes, and later in longer time periods. Stability was also monitored at incubation cell-based assays temperature (37 °C).
smiles,measurement,setting,value
"CN1CN2CN(C)C[P]([Ru+2]([P](c3ccccc3)(c3ccccc3)c3ccccc3)[P](c3ccccc3)(c3ccccc3)c3ccccc3)(C1)C2.O=S(=O)([O-])C(F)(F)F.[Cl][Pd][Cl].c1cc[cH-]c1 [Compound 11, [RuCp(PPh3)2-µ-dmoPTA-1κP-2κ^2N,N′-PdCl2](CF3SO3)]",IC50,[1],1100 ± 200 nM
same,IC50,[2],730 ± 110 nM
same,Fraction converted to complex 8 (solvolysis) in DMSO,"[3]; DMSO-d6, visible after 4 h, constant up to 48 h",< 7%
same,Stability in DMSO-d6,"[3]; room temperature and 37°C, 48 h, 31P{1H} NMR",very stable
